Laboratory results: paper PMC5587527, “A fragment-based approach leading to the discovery of a novel binding site and the selective CK2 inhibitor CAM4066” (Bioorganic & Medicinal Chemistry, 2017)

target: T1, CK2α (Homo sapiens, UniProt P68400); assay: not given; conditions: from ITC Kd
T1 sequence (P68400 whole entry): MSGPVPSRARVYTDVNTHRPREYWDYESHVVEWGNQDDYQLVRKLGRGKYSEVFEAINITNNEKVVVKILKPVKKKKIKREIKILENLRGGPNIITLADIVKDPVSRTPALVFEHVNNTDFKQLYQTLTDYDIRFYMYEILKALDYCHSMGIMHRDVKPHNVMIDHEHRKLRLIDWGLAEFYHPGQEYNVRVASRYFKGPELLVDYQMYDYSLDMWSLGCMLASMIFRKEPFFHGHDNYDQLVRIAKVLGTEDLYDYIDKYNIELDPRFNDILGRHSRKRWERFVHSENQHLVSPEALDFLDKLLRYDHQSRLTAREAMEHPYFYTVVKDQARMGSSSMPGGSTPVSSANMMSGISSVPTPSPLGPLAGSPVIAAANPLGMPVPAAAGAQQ

Point of comparison: `COC(=O)CC(=O)NCCCNCc1ccc(-c2ccccc2)c(Cl)c1.Cl` [Compound 19], ligand efficiency 0.23. Against it:
- O=C(O)CC(=O)NCCCNCc1ccc(-c2ccccc2)c(Cl)c1 [Compound 20] — lower, 0.19

target: T1, CK2α; assay: biochemical; conditions: read-out: % Inhibition at 500 μM

Point of comparison: `O=C(O)CC(=O)NCCCNCc1ccc(-c2ccccc2)c(Cl)c1` [Compound 20], inhibition at 500 µM 20 ± 4%. Against it:
- CCCNCc1ccc(-c2ccccc2)c(Cl)c1 [Compound 12] — higher, 33 ± 5%
- OCCCNCc1ccc(-c2ccccc2)c(Cl)c1 [Compound 13] — higher, 47 ± 5%
- CNCc1ccc(-c2ccccc2)c(Cl)c1 [Compound 10] — higher, 44 ± 12%
- CC(=O)NCCCNCc1ccc(-c2ccccc2)c(Cl)c1 [Compound 15] — higher, 39 ± 3%
- NCCCCNCc1ccc(-c2ccccc2)c(Cl)c1 [Compound 14] — within error, 18 ± 2%
- CCNCc1ccc(-c2ccccc2)c(Cl)c1 [Compound 11] — within error, 23 ± 6%
- CS(=O)(=O)NCCCNCc1ccc(-c2ccccc2)c(Cl)c1 [Compound 18] — higher, 51 ± 10%
- CC(=O)NCCNCc1ccc(-c2ccccc2)c(Cl)c1 [Compound 17] — within error, 12 ± 4%
- COC(=O)CC(=O)NCCCNCc1ccc(-c2ccccc2)c(Cl)c1.Cl [Compound 19] — higher, 46 ± 2%
- NC(=O)CCNCc1ccc(-c2ccccc2)c(Cl)c1 [Compound 16] — within error, 16 ± 6%
